Experimental data: PubChem BioAssay AID248 (DTP/NCI, 2004)
Toxic doses and inconclusive results are not listed. Cut-off read from the data, not from the text of the source: active = T/C of 150% or more; inactive = T/C below 125%.

Test system: L1210 leukemia ip in BDF1 mice, survival T/C
Assay: NCI In Vivo Anticancer Drug Screen. Data for tumor model L1210 Leukemia (intraperitoneal) in B6D2F1 (BDF1) mice
Conditions: endpoint: mean survival time, higher = longer survival
How it was run: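 Mice bearing the transplanted tumor received compound or vehicle. Survival of the treated group was divided by that of the vehicle-treated control group to give the ratio.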

[1] = dose: 100.0 mg/kg/injection, schedule: Q01DX001 (ip), vehicle: carboxymethylcellulose (CMC)
[2] = dose: 100.0 mg/kg/injection, schedule: Q04DX003 (ip), vehicle: other
[3] = dose: 200.0 mg/kg/injection, schedule: Q01DX001 (ip), vehicle: carboxymethylcellulose (CMC)
[4] = dose: 200.0 mg/kg/injection, schedule: Q04DX003 (ip), vehicle: other
[5] = dose: 400.0 mg/kg/injection, schedule: Q01DX001 (ip), vehicle: carboxymethylcellulose (CMC)
[6] = dose: 100.0 mg/kg/injection, schedule: Q01DX001 (ip), vehicle: saline with Tween-80
[7] = dose: 100.0 mg/kg/injection, schedule: Q01DX009 (ip), vehicle: saline with Tween-80
[8] = dose: 200.0 mg/kg/injection, schedule: Q01DX001 (ip), vehicle: saline with Tween-80
[9] = dose: 50.0 mg/kg/injection, schedule: Q01DX001 (ip), vehicle: carboxymethylcellulose (CMC)
[10] = dose: 50.0 mg/kg/injection, schedule: Q01DX009 (ip), vehicle: saline with Tween-80
[11] = dose: 75.0 mg/kg/injection, schedule: Q01DX001 (ip), vehicle: saline
[12] = dose: 150.0 mg/kg/injection, schedule: Q01DX001 (ip), vehicle: saline
[13] = dose: 300.0 mg/kg/injection, schedule: Q01DX001 (ip), vehicle: saline
[14] = dose: 100.0 mg/kg/injection, schedule: Q01DX009 (ip), vehicle: Klucel (hydroxypropylcellulose) (HPC)
[15] = dose: 200.0 mg/kg/injection, schedule: Q01DX009 (ip), vehicle: Klucel (hydroxypropylcellulose) (HPC)
[16] = dose: 400.0 mg/kg/injection, schedule: Q01DX009 (ip), vehicle: Klucel (hydroxypropylcellulose) (HPC)
[17] = dose: 12.5 mg/kg/injection, schedule: Q01DX009 (ip), vehicle: saline
[18] = dose: 25.0 mg/kg/injection, schedule: Q01DX009 (ip), vehicle: saline
[19] = dose: 100.0 mg/kg/injection, schedule: Q04DX003 (ip), vehicle: Klucel (hydroxypropylcellulose) (HPC)
[20] = dose: 200.0 mg/kg/injection, schedule: Q04DX003 (ip), vehicle: Klucel (hydroxypropylcellulose) (HPC)
[21] = dose: 400.0 mg/kg/injection, schedule: Q04DX003 (ip), vehicle: Klucel (hydroxypropylcellulose) (HPC)
[22] = dose: 100.0 mg/kg/injection, schedule: Q01DX009 (ip), vehicle: saline
[23] = dose: 200.0 mg/kg/injection, schedule: Q01DX009 (ip), vehicle: saline
[24] = dose: 100.0 mg/kg/injection, schedule: Q01DX001 (ip), vehicle: saline
[25] = dose: 200.0 mg/kg/injection, schedule: Q01DX001 (ip), vehicle: saline
[26] = dose: 400.0 mg/kg/injection, schedule: Q01DX001 (ip), vehicle: saline
[27] = dose: 100.0 mg/kg/injection, schedule: Q04DX002 (ip), vehicle: saline
[28] = dose: 200.0 mg/kg/injection, schedule: Q04DX002 (ip), vehicle: saline
[29] = dose: 400.0 mg/kg/injection, schedule: Q04DX002 (ip), vehicle: saline

Measured: T/C

CC(CNC(=O)CCOS(C)(=O)=O)CNC(=O)CCOS(C)(=O)=O
inactive: [1] 115 % of control | [2] 105 % of control | dose: 132.0 mg/kg/injection, schedule: Q01DX009 (ip), vehicle: other 113 % of control | [3] 107 % of control | dose: 200.0 mg/kg/injection, schedule: Q01DX009 (ip), vehicle: other 122 % of control | [4] 121 % of control | dose: 264.0 mg/kg/injection, schedule: Q04DX003 (ip), vehicle: saline 114 % of control | [5] 120 % of control

F[Si]1(c2cccc(Br)c2)c2ccccc2-c2ccccc21
inactive: [6] 103 % of control | [7] 103 % of control | [8] 100 % of control | dose: 200.0 mg/kg/injection, schedule: Q01DX009 (ip), vehicle: saline with Tween-80 101 % of control | dose: 400.0 mg/kg/injection, schedule: Q01DX001 (ip), vehicle: saline with Tween-80 100 % of control | dose: 400.0 mg/kg/injection, schedule: Q01DX009 (ip), vehicle: saline with Tween-80 104 % of control

O=C1C(=O)c2ccccc2C=C1C1CCCCC1
inactive: [9] 97 % of control | [1] 114 % of control | [3] 97 % of control | [5] 107 % of control

O=C(COc1ccc(Cl)cc1)Nc1ccc(S(=O)(=O)O)c2ccccc12
inactive: dose: 100.0 mg/kg/injection, schedule: Q04DX002 (ip), vehicle: Klucel (hydroxypropylcellulose) (HPC) 98 % of control | dose: 200.0 mg/kg/injection, schedule: Q04DX002 (ip), vehicle: Klucel (hydroxypropylcellulose) (HPC) 98 % of control | dose: 400.0 mg/kg/injection, schedule: Q04DX002 (ip), vehicle: Klucel (hydroxypropylcellulose) (HPC) 98 % of control

COc1cc(NCCCCCNC(C)C)c2ncccc2c1
inactive: dose: 5.0 mg/kg/injection, schedule: Q04DX002 (ip), vehicle: saline with Tween-80 100 % of control | dose: 10.0 mg/kg/injection, schedule: Q04DX002 (ip), vehicle: saline with Tween-80 97 % of control | dose: 20.0 mg/kg/injection, schedule: Q04DX002 (ip), vehicle: saline with Tween-80 100 % of control

O=S(=O)(C1CCCCC1)N1N=NC2CCCCC21 (stereo not drawn)
inactive: [10] 93 % of control | [7] 90 % of control

O=C(O)CCCCCN1C(=O)c2cccc([N+](=O)[O-])c2C1=O
inactive: [6] 110 % of control | [8] 109 % of control

C/C(=N/O)c1ccccc1NO
inactive: dose: 25.0 mg/kg/injection, schedule: Q01DX001 (ip), vehicle: carboxymethylcellulose (CMC) 89 % of control | [9] 94 % of control | [1] 96 % of control | [3] 91 % of control | [5] 86 % of control

C=CCC1(C(C)CCC)C(=O)NC(=S)NC1=O (stereo not drawn)
inactive: [11] 100 % of control | [12] 98 % of control | [13] 90 % of control

OCC1OC(c2[nH]nc3c(Cl)ncnc23)C(O)C1O (stereo not drawn)
inactive: dose: 100.0 mg/kg/injection, schedule: Q01DX005 (ip), vehicle: saline 108 % of control | dose: 200.0 mg/kg/injection, schedule: Q01DX005 (ip), vehicle: saline 120 % of control

N#CC1C(=O)c2ccccc2C1=O
inactive: dose: 25.0 mg/kg/injection, schedule: Q01DX009 (ip), vehicle: saline with Tween-80 92 % of control | [10] 91 % of control | [7] 89 % of control | dose: 100.0 mg/kg/injection, schedule: Q04DX003 (ip), vehicle: saline with Tween-80 94 % of control

C=C(C/C(=C/S(C)=O)c1ccccc1)c1ccccc1 (stereo not drawn)
inactive: [11] 97 % of control | [12] 96 % of control | [13] 91 % of control

COc1ccc(N=C(C)CC(C)=O)cc1
inactive: dose: 100.0 mg/kg/injection, schedule: Q01DX001 (ip), vehicle: Klucel (hydroxypropylcellulose) (HPC) 101 % of control | [14] 108 % of control | dose: 200.0 mg/kg/injection, schedule: Q01DX001 (ip), vehicle: Klucel (hydroxypropylcellulose) (HPC) 103 % of control | [15] 97 % of control | dose: 400.0 mg/kg/injection, schedule: Q01DX001 (ip), vehicle: Klucel (hydroxypropylcellulose) (HPC) 101 % of control | [16] 102 % of control

Cc1ncc(CO)c(/C=N\OCc2cccc(Cl)c2)c1O
inactive: [17] 100 % of control | [18] 100 % of control

COc1ccc(CC(N)C(=O)O)cc1 (stereo not drawn)
inactive: [14] 103 % of control | [19] 101 % of control | [15] 92 % of control | [20] 101 % of control | [21] 106 % of control

O=C(Cn1cc(F)c(=O)[nH]c1=O)N1CCC2(CC1)SSC1(CCN(C(=O)Cn3cc(F)c(=O)[nH]c3=O)CC1)S2
inactive: [22] 96 % of control | dose: 100.0 mg/kg/injection, schedule: Q04DX003 (ip), vehicle: saline 104 % of control | [23] 96 % of control | dose: 200.0 mg/kg/injection, schedule: Q04DX003 (ip), vehicle: saline 97 % of control | dose: 400.0 mg/kg/injection, schedule: Q04DX003 (ip), vehicle: saline 97 % of control

O=C(O)CCC(=O)c1ccc2ccc3cccc4ccc1c2c34
inactive: [24] 98 % of control | [25] 102 % of control | [26] 103 % of control

CCOC(=O)CC(CC(=O)OCC)C(=O)OCC
inactive: [27] 104 % of control | [28] 96 % of control | [29] 107 % of control

Cc1nccn1C
inactive: [24] 101 % of control | [25] 90 % of control | [26] 92 % of control

C[N+]1(C)CCCC1
inactive: dose: 6.25 mg/kg/injection, schedule: Q01DX009 (ip), vehicle: saline 103 % of control | [17] 102 % of control | dose: 12.5 mg/kg/injection, schedule: Q04DX003 (ip), vehicle: saline 86 % of control | [18] 109 % of control | dose: 25.0 mg/kg/injection, schedule: Q04DX003 (ip), vehicle: saline 91 % of control | dose: 50.0 mg/kg/injection, schedule: Q04DX003 (ip), vehicle: saline 95 % of control

CCc1ccc(Nc2c([N+](=O)[O-])cc(C)cc2[N+](=O)[O-])cc1
inactive: [14] 97 % of control | [19] 103 % of control | [15] 105 % of control | [20] 108 % of control | [16] 113 % of control | [21] 102 % of control

O=C(SSC(=O)c1ccccc1)c1ccccc1
inactive: [9] 96 % of control | [1] 94 % of control | [3] 90 % of control | [5] 107 % of control

CC(=O)OCCOc1cccc(C)c1
inactive: [27] 114 % of control | [28] 96 % of control | [29] 107 % of control

CCOC(=O)N(c1ccccc1)C1OCC(OC(C)=O)C(OC(C)=O)C1OC(C)=O (stereo not drawn)
inactive: [22] 97 % of control | dose: 100.0 mg/kg/injection, schedule: Q04DX003 (ip), vehicle: water 97 % of control | [23] 93 % of control | dose: 200.0 mg/kg/injection, schedule: Q04DX003 (ip), vehicle: water 97 % of control | dose: 400.0 mg/kg/injection, schedule: Q01DX009 (ip), vehicle: saline 94 % of control | dose: 400.0 mg/kg/injection, schedule: Q04DX003 (ip), vehicle: water 94 % of control

O=NN(CCN(N=O)c1ccccc1)c1ccccc1
inactive: dose: 100.0 mg/kg/injection, schedule: Q01DX001 (ip), vehicle: other 97 % of control | [2] 104 % of control | dose: 200.0 mg/kg/injection, schedule: Q01DX001 (ip), vehicle: other 97 % of control | [4] 101 % of control | dose: 400.0 mg/kg/injection, schedule: Q01DX001 (ip), vehicle: other 92 % of control | dose: 400.0 mg/kg/injection, schedule: Q04DX003 (ip), vehicle: other 97 % of control
